Earlier results as cited in paper PMC6253886, “Prodrugs of Thyrotropin-Releasing Hormone and Related Peptides as Central Nervous System Agents” (Molecules, 2009).
Read-outs that look alike come from different tables or passages of the source. Marks after values point to notes of the source that are not given here. [ ]: non-standard residue; d: D form. The star is where a group is joined. O(cholesteryl) = CC(C)CCC[C@@H](C)[C@H]1CC[C@H]2[C@@H]3CC=C4C[C@@H](O*)CC[C@]4(C)[C@H]3CC[C@]12C; pGlu = O=C1CC[C@@H](C(=O)O)N1; Dht = not defined here

How the values were obtained:
[1] = IAMC
Excerpt: We utilized again the robust ... || (+ 2 further places)

mice [2] = conditions: 3 µmol/kg i.v., percent decrease vs saline vehicle counted as 100%, n=6–16
Excerpt: Table 4 Comparison of analeptic (equimolar dose of 10 µmol/kg body weight, i.v.) and antidepressant (equimolar dose of 3 of µmol/kg body weight, i.v) effects of test compounds in mice. Values are expressed as percent decrease compared to those of saline vehicle that was counted as 100%. *Statistically significant difference from saline control (ANOVA followed by Dunnett’s, P < 0.05, n=6–16). Repri | column: Porsolt Swim Test:% Decrease in Immobility

mice [3] = conditions: for Analeptic Effect: % Decrease in Sleeping Time / Sleeping time (min): 10 µmol/kg i.v.; for Analeptic Effect: % Decrease in Sleeping Time: percent decrease vs saline vehicle counted as 100%; for % Decrease in Sleeping Time / Sleeping time (min): pentobarbital 60 mg/kg i.p. 10 min later; for % Decrease in Sleeping Time: percent of vehicle sleeping time (54.9 ±3.8 min); for Sleeping time (min): saline vehicle 80±2 min
Description: Table 1 Barbiturate-induced sleeping times in mice after the administration of [Leu^2]TRH and its produgs having various spacers (S). Sleeping time decrease is expressed as percent of sleeping time for vehicle administration only (54.9 ±3.8 min). […] Values are expressed as percent decrease compared to those of saline vehicle that was counted as 100%. *Statistically significant difference from saline control (ANOVA followed by Dunnett’s, P < 0.05, n=6–16). Repri | column: Analeptic Effect:% Decrease in Sleeping Time || (+ 5 further places)

[4] = molecular target: TRH receptor (Rattus norvegicus) (UniProt Q01717); experiment: radioligand competition
Sequence of TRH receptor (Rattus norvegicus) (Q01717 whole entry): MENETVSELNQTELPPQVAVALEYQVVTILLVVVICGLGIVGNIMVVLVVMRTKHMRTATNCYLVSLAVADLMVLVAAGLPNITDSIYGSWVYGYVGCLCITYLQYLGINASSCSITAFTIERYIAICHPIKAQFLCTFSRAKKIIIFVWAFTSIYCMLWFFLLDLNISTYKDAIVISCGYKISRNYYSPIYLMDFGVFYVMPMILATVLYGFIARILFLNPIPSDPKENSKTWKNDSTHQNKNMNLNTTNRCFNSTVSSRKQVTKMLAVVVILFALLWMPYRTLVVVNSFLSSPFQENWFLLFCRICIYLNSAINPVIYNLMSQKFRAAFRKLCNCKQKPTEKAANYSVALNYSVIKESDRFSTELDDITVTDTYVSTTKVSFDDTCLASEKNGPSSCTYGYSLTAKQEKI

TRH receptors = conditions: review statement
Excerpt: (§1) Many pharmacological activities of this peptide are similar to those of TRH [54]; however, the beneficial effects after treatment with [Glu^2]TRH are reportedly more robust or prolonged. These advantages are probably due to the increased resistance of this peptide to enzymes principally responsible for the rapid degradation of TRH in vivo [40].

[5] = system: triiodothyronine (T3) levels; conditions: review statement
Excerpt: as §1

[6] = remark: listed apart in the source
Excerpt: A centrally selective natural analogue of TRH is [Leu^2]TRH (pGlu-Leu-Pro-NH2, Figure 1), in which the central His of TRH is replaced with Leu. […] Therefore, we selected this tripeptide for substantiating our brain-targeting prodrug approach. […] The amino- and carbox ...

[7] = remark: listed apart in the source
Description: Studies in rodents and humans have shown that this tripeptide has a very short (6–10 min) half-life in plasma. The rapid degradation in this medium is mainly due to the action of pyroglutamyl aminopeptidases. Additionally, this highly hydrophilic molecule (logP = –2.46) also lacks its own active BBB transport system; thus, high doses of the peptide unavoidably manifesting a profound and undesired hormonal (endocrine) effect would be required for CNS application. Therefore, dissociation of endocrine and CNS actions of TRH is a crucial issue in designing TRH analogues a ... || A centrally selective natural analogue of TRH is [Leu^2]TRH (pGlu-Leu-Pro-NH2, Figure 1), in which the central His of TRH is replaced with Leu. […] Therefore, we selected this tripeptide for substantiating our brain-targeting prodrug approach. […] The amino- and carbox ...

[8] = system: receptor labeled by [3H][3-Me-His2]TRH; conditions: [3H][3-Me-His2]TRH-labeled receptor, rat brain pellets
Excerpt: (§2) Replacement of [His^2] practically aboli ...

[9] = mouse plasma
Excerpt: as §2

[10] = rodents and humans
Description: Studies in rodents and humans have shown that this tripeptide has a very short (6–10 min) half-life in plasma. The rapid degradation in this medium is mainly due to the action of pyroglutamyl aminopeptidases. Additionally, this highly hydrophilic molecule (logP = –2.46) also lacks its own active BBB transport system; thus, high doses of the peptide unavoidably manifesting a profound and undesired hormonal (endocrine) effect would be required for CNS application. Therefore, dissociation of endocrine and CNS actions of TRH is a crucial issue in designing TRH analogues a ...

[11] = k’IAM = (tR-t0)/t0, t0 = retention time of [Glu^2]TRH as dead-volume marker

Sequence of TRH (P01150 whole entry, looked up): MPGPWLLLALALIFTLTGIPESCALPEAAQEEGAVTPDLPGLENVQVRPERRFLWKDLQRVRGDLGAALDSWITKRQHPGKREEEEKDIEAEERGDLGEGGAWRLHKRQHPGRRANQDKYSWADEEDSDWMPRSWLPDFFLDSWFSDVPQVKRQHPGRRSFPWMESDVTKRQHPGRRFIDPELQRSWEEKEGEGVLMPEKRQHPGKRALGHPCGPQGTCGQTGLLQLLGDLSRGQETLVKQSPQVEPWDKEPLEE

Dht-Glu(OH)-Pro-NH2 [neutral prodrug without the ester function on the side-chain of the central residue]
improvement of affinity to membrane lipids compared to the ionic analogue [1]: three- to five-fold | k’IAM ([1]; [Trig^1] analogue prodrugs): 0.4

Dht-Glu(OHex)-Pro-NH2 [hexyl ester prodrug of Trig-Glu(OH)-Pro-NH2]
Porsolt Swim Test: % Decrease in Immobility (mice [2]): 43±3* % | t1/2 of hydrolysis of the ester (mouse): 27 min | Analeptic Effect: % Decrease in Sleeping Time (mice [3]; n=6–16): 18 ± 2% | Analeptic Effect: % Decrease in Sleeping Time (mice [3]; n=6–16, listed as Dht-Glu(OHex)–Pro-NH2): 18±2* % | k’IAM ([1]; [Trig^1] analogue prodrugs): 28.6

Prodrug, S= Ala-Ala: [Leu^2]TRH brain-targeting prodrug: Dht attached through spacer Ala-Ala to Gln-Leu-Pro-Gly, carboxy-terminus esterified with cholesterol (Dht-AAQLPG-{O(cholesteryl)}; reading uncertain)
% Decrease in Sleeping Time (mice [3]; 15 µmol/kg i.v.): 32 ± 4* %

Prodrug, S= Ala: [Leu^2]TRH brain-targeting prodrug: Dht attached through spacer Ala to Gln-Leu-Pro-Gly, carboxy-terminus esterified with cholesterol (Dht-AQLPG-{O(cholesteryl)}; reading uncertain)
% Decrease in Sleeping Time (mice [3]; 15 µmol/kg i.v.): 30 ± 3* %

Prodrug, S= Pro-Ala: [Leu^2]TRH brain-targeting prodrug: Dht attached through spacer Pro-Ala to Gln-Leu-Pro-Gly, carboxy-terminus esterified with cholesterol (Dht-PAQLPG-{O(cholesteryl)}; reading uncertain)
% Decrease in Sleeping Time (mice [3]; 15 µmol/kg i.v.): 56 ± 4** %

Prodrug, S= Pro-Pro: [Leu^2]TRH brain-targeting prodrug: Dht attached through spacer Pro-Pro to Gln-Leu-Pro-Gly, carboxy-terminus esterified with cholesterol (Dht-PPQLPG-{O(cholesteryl)}; reading uncertain)
% Decrease in Sleeping Time (mice [3]; 15 µmol/kg i.v.): 55 ± 7** %

Prodrug, S= Pro: [Leu^2]TRH brain-targeting prodrug: Dht attached through spacer Pro to Gln-Leu-Pro-Gly, carboxy-terminus esterified with cholesterol (Dht-PQLPG-{O(cholesteryl)}; reading uncertain)
% Decrease in Sleeping Time (mice [3]; 15 µmol/kg i.v.): 47 ± 6** %

TRH (from UniProt P01150)
Ki [4]: 0.042 µM

Trig-Glu(OHex)-Pro-NH2 [hexyl ester of the designed [Trig^1] analogue of [Glu^2]TRH]
Porsolt Swim Test: % Decrease in Immobility (mice [2]): 2±1% | Analeptic Effect: % Decrease in Sleeping Time (mice [3]; n=6–16): 1±3% | pharmacological (analeptic) response, in words (mice [3]; i.v., ionic compound without reduction of Trig to Dht): no pharmacological response was observed

[pGlu]-Glu-Pro-NH2 [[Glu^2]TRH, TRH-like endogenous tripeptide, reference compound]
binding to TRH receptors, in words (TRH receptors): practically does not bind to TRH receptors | effect on triiodothyronine (T3) levels, in words [5]: does not elevate triiodothyronine (T3) levels | Sleeping time (min) (mice [3]): 65±3* min | k’IAM [1, 11]: 0

[pGlu]-Leu-Pro-NH2 [[Leu^2]TRH, reference compound]
increase in typical TRH-associated analeptic effect compared to TRH [6]: approximately 2.5 fold | logP [7]: –1.67 | % Decrease in Sleeping Time (mice [3]; 15 µmol/kg i.v.): 17 ± 7%

pGlu-Glu(OHex)-Pro-NH2 [R=Hex, n-hexyl ester prodrug of [Glu^2]TRH on the γ-COOH of Glu]
Porsolt Swim Test: % Decrease in Immobility (mice [2]): 44±2* % | t1/2 (mouse): ~22 min | Sleeping time (min) (mice [3]): 50±2** min | Analeptic Effect: % Decrease in Sleeping Time (mice [3]; n=6–16): 37±3* % | ED50 (analeptic effect, dose-response) (mice [3]; i.v.): around 2 µmol/kg body weight | k’IAM [1, 11]: 16.0

pGlu-His-Pro-NH2 [TRH, thyrotropin-releasing hormone, native tripeptide]
half-life (mouse brain homogenate (20%, w/v)): 16 min | binding affinity [8]: 42 nM | half-life [9]: 11 min | logP ([7]; logarithm of the n-octanol/water partition coefficient, review, no reference given for the value): –2.46 | duration of the analeptic action, in words (mice [3]; 15 µmol/kg i.v., pentobarbital 60 mg/kg i.p. given 60 min post drug vs 10 min, Figure 6): loss of over half of CNS-activity | k’IAM ([1]; TRH, pyridinium analogues and their prodrugs): 0.51 | half-life in plasma [10]: 6 to 10 min
